Source: patent publication US11566007B2, “Ras inhibitors” (Revolution Medicines, Inc., priority 2019, dated 2023)
pIC50: −log10 of the molar value.

Assays:
[1] = biological target: KRAS Q61H (Homo sapiens (Human), UniProt P01116+P62937, Q61H); assay: Ras-Raf (BRAF RBD) disruption / FRET / MOA assay, KRAS Q61H; assay type: biochemical; conditions: Ras-Raf disruption/FRET/MOA assay; class symbols; read-out: KRAS Q61H FRET data IC50
Procedure, shortened: (§1)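 TR-FRET disruption of nucleotide-loaded Ras binding to BRAF RBD via compound-driven ternary complex with cyclophilin A. Compound as 10-point 3-fold series from 30 μM final, 3 h at 25° C, then anti-His Eu-W1024 (10 nM) and anti-GST allophycocyanin (50 nM) for 1.5 h. IC50 from decreased FRET ratio versus DMSO.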

[2] = biological target: NRAS G12C (Homo sapiens (Human), UniProt P01111+P62937, G12C); assay: Ras-Raf (BRAF RBD) disruption / FRET / MOA assay, NRAS G12C; assay type: biochemical; conditions: read-out: IC50* NRAS G12C FRET data
Procedure, shortened: (§2)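 Compounds, top final concentration 30 μM in 10-point 3-fold series, incubated 3 hours at 25° C with nucleotide-loaded Ras, cyclophilin A and BRAF RBD.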

[3] = biological target: KRAS G12S (Homo sapiens (Human), UniProt P01116+P62937, G12S); assay: Ras-Raf (BRAF RBD) disruption / FRET / MOA assay, KRAS G12S; assay type: biochemical; conditions: Ras-Raf disruption/FRET/MOA assay; class symbols; read-out: KRAS G12S FRET data IC50
Procedure, shortened: as §2

[4] = biological target: NRAS WT (Homo sapiens (Human), UniProt P01111+P62937); assay: Ras-Raf (BRAF RBD) disruption / FRET / MOA assay, NRAS WT; assay type: biochemical; conditions: read-out: IC50* NRAS WT FRET data
Procedure, shortened: as §1

[5] = biological target: NRAS Q61K (Homo sapiens (Human), UniProt P01111+P62937, Q61K); assay: Ras-Raf (BRAF RBD) disruption / FRET / MOA assay, NRAS Q61K; assay type: biochemical; conditions: NRAS Q61K; Ras-Raf disruption/FRET/MOA assay; read-out: IC50* NRAS Q61K FRET data
Procedure, shortened: as §1

[6] = biological target: KRAS WT (Homo sapiens (Human), UniProt P01116+P62937); assay: Ras-Raf (BRAF RBD) disruption / FRET / MOA assay, KRAS WT; assay type: biochemical; conditions: read-out: IC50* KRAS WT FRET data
Procedure, shortened: as §2

[7] = test system: NCI-H358 (K-Ras G12C); assay: CellTiter-Glo cell viability assay, NCI-H358; assay type: cell-based, human; conditions: Homo sapiens, NCI-H358, 120 h, NCI-H358, 5-day treatment; class symbols; read-out: Additional H358 Cell Viability assay data (K-Ras G12C, IC50)
Procedure, shortened: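 Compounds dispensed directly onto seeded K-Ras mutant cells; plates read on day 5 after ~30 min equilibration to room temperature, by CellTiter-Glo luminescence. Signal normalized as (sample/mean DMSO)×100, then fitted to a four-parameter logistic curve.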

Chain of KRAS WT (P01116-2 other isoform, or with tags, fused parts or gaps): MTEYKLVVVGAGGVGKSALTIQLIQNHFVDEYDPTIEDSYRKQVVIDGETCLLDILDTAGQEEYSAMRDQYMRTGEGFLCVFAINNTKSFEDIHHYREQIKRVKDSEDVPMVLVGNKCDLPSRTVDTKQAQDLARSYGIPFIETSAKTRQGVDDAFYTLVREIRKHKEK
Chain of KRAS WT (P62937 whole entry): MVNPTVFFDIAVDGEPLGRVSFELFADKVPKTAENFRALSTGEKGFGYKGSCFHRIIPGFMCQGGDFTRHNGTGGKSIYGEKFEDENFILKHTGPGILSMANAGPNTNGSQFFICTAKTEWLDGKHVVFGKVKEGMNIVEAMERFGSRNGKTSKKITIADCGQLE
Chain of NRAS Q61K (P01111 whole entry Q61K): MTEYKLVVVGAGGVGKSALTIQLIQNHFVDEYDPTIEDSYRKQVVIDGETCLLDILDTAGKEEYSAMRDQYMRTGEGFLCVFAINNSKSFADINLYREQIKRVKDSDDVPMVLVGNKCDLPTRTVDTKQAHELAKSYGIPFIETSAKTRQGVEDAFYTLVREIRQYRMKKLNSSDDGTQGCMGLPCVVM
Chain of NRAS Q61K (P62937 whole entry): as the sequence (P62937 whole entry) above
Chain of KRAS G12S (P01116-2 other isoform, or with tags, fused parts or gaps G12S): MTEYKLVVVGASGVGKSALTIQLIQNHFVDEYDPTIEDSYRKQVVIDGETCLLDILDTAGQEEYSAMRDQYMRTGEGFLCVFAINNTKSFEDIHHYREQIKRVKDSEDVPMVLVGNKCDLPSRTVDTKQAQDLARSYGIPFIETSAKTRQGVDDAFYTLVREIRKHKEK
Chain of KRAS G12S (P62937 whole entry): as the sequence (P62937 whole entry) above
Chain of NRAS WT (P01111 whole entry): as the sequence (P01111 whole entry Q61K) above, with K61Q counted along it
Chain of NRAS WT (P62937 whole entry): as the sequence (P62937 whole entry) above
Chain of KRAS Q61H (P01116-2 other isoform, or with tags, fused parts or gaps Q61H): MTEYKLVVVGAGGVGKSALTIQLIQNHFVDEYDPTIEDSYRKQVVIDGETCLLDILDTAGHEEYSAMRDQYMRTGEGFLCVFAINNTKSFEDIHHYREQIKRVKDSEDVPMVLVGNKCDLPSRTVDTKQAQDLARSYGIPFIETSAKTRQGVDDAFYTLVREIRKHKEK
Chain of KRAS Q61H (P62937 whole entry): as the sequence (P62937 whole entry) above
Chain of NRAS G12C (P01111 whole entry G12C): as the sequence (P01111 whole entry Q61K) above, with G12C, K61Q counted along it
Chain of NRAS G12C (P62937 whole entry): as the sequence (P62937 whole entry) above

| Compound | pIC50 [1] | pIC50 [2] | pIC50 [3] | pIC50 [4] | pIC50 [5] | pIC50 [6] | pIC50 [7] |
| --- | --- | --- | --- | --- | --- | --- | --- |
| C=CC(=O)N1CCC2(CCN(C(=O)N(C)[C@H](C(=O)N[C@H]3Cc4nc(cs4)-c4ccc5c(c4)c(c(-c4cccnc4[C@H](C)OC)n5CC)CC(C)(C)COC(=O)[C@@H]4CCCN(N4)C3=O)C(C)C)CC2)C1 (atropisomer, axis not shown) [Example A698] | 7.00 to 8.00 | 7.00 to 8.00 | 6.00 to 7.00 | 6.00 to 7.00 | 7.00 to 8.00 | 6.00 to 7.00 | 7.00 to 8.00 |
| CCn1c(-c2cccnc2[C@H](C)OC)c2c3cc(ccc31)-c1csc(n1)C[C@H](NC(=O)[C@H](C(C)C)N(C)C(=O)N1CCN(C(=O)/C=C/CN(C)C)C3(CC3)C1)C(=O)N1CCC[C@H](N1)C(=O)OCC(C)(C)C2 (atropisomer, axis not shown) [Example A701] | 7.00 to 8.00 | 7.00 to 8.00 | 6.00 to 7.00 | 6.00 to 7.00 | 7.00 to 8.00 | 6.00 to 7.00 | 7.00 to 8.00 |
| C=CC(=O)N1CCC2(CC1)CN(C(=O)N(C)[C@H](C(=O)N[C@H]1Cc3nc(cs3)-c3ccc4c(c3)c(c(-c3cccnc3[C@H](C)OC)n4CC)CC(C)(C)COC(=O)[C@@H]3CCCN(N3)C1=O)C(C)C)C2 (atropisomer, axis not shown) [Example A702] | 7.00 to 8.00 | 6.00 to 7.00 | 6.00 to 7.00 | 6.00 to 7.00 | 7.00 to 8.00 | 6.00 to 7.00 | 7.00 to 8.00 |
| C=CC(=O)N(C)[C@H]1C[C@@H](N(C)C(=O)N(C)[C@H](C(=O)N[C@H]2Cc3nc(cs3)-c3ccc4c(c3)c(c(-c3cccnc3[C@H](C)OC)n4CC)CC(C)(C)COC(=O)[C@@H]3CCCN(N3)C2=O)C(C)C)C1 (atropisomer, axis not shown) [Example A704] | 7.00 to 8.00 | 7.00 to 8.00 | 6.00 to 7.00 | 7.00 to 8.00 | 7.00 to 8.00 | 7.00 to 8.00 | > 8.00 |
| C=CC(=O)N(C)[C@H]1C[C@H](N(C)C(=O)N(C)[C@H](C(=O)N[C@H]2Cc3nc(cs3)-c3ccc4c(c3)c(c(-c3cccnc3[C@H](C)OC)n4CC)CC(C)(C)COC(=O)[C@@H]3CCCN(N3)C2=O)C(C)C)C1 (atropisomer, axis not shown) [Example A712] | 7.00 to 8.00 | 7.00 to 8.00 | 7.00 to 8.00 | 7.00 to 8.00 | 7.00 to 8.00 | 7.00 to 8.00 | > 8.00 |
| C=CC(=O)N1CCO[C@@H]2CN(C(=O)N(C)[C@H](C(=O)N[C@H]3Cc4nc(cs4)-c4ccc5c(c4)c(c(-c4cccnc4[C@H](C)OC)n5CC)CC(C)(C)COC(=O)[C@@H]4CCCN(N4)C3=O)C(C)C)C[C@@H]21 (atropisomer, axis not shown) [Example A714] | 6.00 to 7.00 | 6.00 to 7.00 | 6.00 to 7.00 | 6.00 to 7.00 | 6.00 to 7.00 | 6.00 to 7.00 | > 8.00 |
| CCn1c(-c2cccnc2[C@H](C)OC)c2c3cc(ccc31)N1CCC[C@@H](C[C@H](NC(=O)[C@@H](COC3CN(C(=O)C#CC(C)(C)N(C)C)C3)C(C)C)C(=O)N3CCC[C@H](N3)C(=O)OCC(C)(C)C2)C1 (atropisomer, axis not shown) [Example A715, (2R)-2-(((1-(4-(dimethylamino)-4-methylpent-2-ynoyl)azetidin-3-yl)oxy)methyl)-N-((2^3S,6^3S,4S)-1^1-ethyl-1^2-(2-((S)-1-methoxyethyl)pyridin-3-yl)-10,10-dimethyl-5,7-dioxo-6^1,6^2,6^3,6^4,6^5,6^6-hexahydro-1^1H-8-oxa-1(5,3)-indola-6(1,3)-pyridazina-2(1,3)-piperidinacycloundecaphane-4-yl)-3-methylbutanamide] | < 5.00 | 7.00 to 8.00 | < 5.00 | < 5.00 | < 5.00 | < 5.00 | 7.00 to 8.00 |
